What all share (assay type): cell-based, human
Data set [1] in a line: in vitro. To be noted: human. The protocol: Cytotoxicity was measured using 3-(4,5-dimethylthiazol-2-yl)-5-(3-carboxymethoxyphenyl)-2-(4-sulfophenyl)-2H-tetrazolium (MTS) tests. SY5Y-APP^695WT cells were plated in a 96-well plate at 3 × 10^4 cells per well and allowed to attach for 24 h. Cells were then incubated for 72 h with 100 µL of DMEM with 10% SVF containing (or not) the defined concentration of drugs. Cytotoxicity was determined by using the colorimetric MTS assay (Cell Titer 96® Aqueous One Solution Cell Proliferation Assay-MTS Promega, Madison, WI, USA) according to the manufacturer’s instructions. Absorbance was read at 490 nm.

Data set [2] has as its system Aβ1–40 peptide secretion. The experiment in a line: Aβ1–40 secretion in cell medium by ELISA. The conditions noted are these: Homo sapiens; SY5Y-APP^WT cells, 24 h treatment; mean ± SD of at least three experiments in triplicate; read-out: Aβ1–40 IC50. The method, then: (§1) The final and selected intermediate compounds were evaluated for their ability to modulate APP processing in the SH-SY5Y human neuroblastoma cell line stably expressing the neuronal isoform of human wild-type APP^695 (SY5Y-APP^WT), a well-established model for the study of APP metabolism. APP carboxy-terminal fragments (αCTFs and AICD) levels were assessed by Western blotting (WB). The effect of the reference and test compounds on αCTFs and AICD is expressed as the intensity of corresponding WB bands. The concentration of compounds able to increase 20-times αCTFs and AICD (C20) when compared to the control condition was calculated. Selected compounds were also evaluated for their ability to modulate the secretion of soluble APP fragments (sAPPα and sAPPβ). Aβ1–x levels (Aβ1–40 and Aβ1–42) after treatment with the reference and tested compounds were measured in the cell media by ELISA (Table 1). […] Selected hit compounds were then further evaluated for their ability to decrease the level of N-truncated Aβ peptides (Aβx–38, Aβx–40, and Aβx–42).
(§2) The human neuroblastoma cell line SY5Y-APP^695WT was maintained in Dulbecco’s modified Eagle medium (DMEM, high glucose, pyruvate—GIBCO, Life Technologies, Carlsbad, CA, USA) supplemented with 10% fetal bovine serum, 2 mM L-glutamine, 1 mM non-essential amino acids and penicillin/streptomycin (GIBCO, Life Technologies, Carlsbad, CA, USA) at 37 °C in a 5% CO2 humidified incubator [36]. For compound treatment, a 10 mM stock solution was diluted in freshly supplemented DMEM medium to obtain the precise final concentration of the drug. Cells were plated at a density of 5 × 10^5 cells per well into 12-well plates and cultured with 1 mL supplemented DMEM cell medium for 24 h before compound exposure. The following day, the cell medium was replaced with fresh medium containing the compounds diluted at the indicated concentrations. Cells were treated for 24 h. At the end of the treatments, the cell medium was collected and kept at −80 °C until use, cells were rinsed once with PBS and extracted in 100 µL of Laemmli buffer (10 mM Tris, 20% glycerol, and 2% sodium dodecyl sulfate) using a cell-scraper. The cell lysate was further sonicated (30 pulses of 0.5 s, 60 Hz) for 5 min. Total protein concentration was determined using the Pierce BCA Protein Assay Kit (Thermo Scientific, Waltham, MA, USA) according to the manufacturer’s instructions. Samples were stored at −80 °C until analysis.
(§3) Conditioned media of SY5Y-APP^695WT collected at the end of treatments were centrifuged at 1000× g for 5 min to eliminate cell debris.
(§4) Aβ1–40/Aβ1–42 peptides, Aβx–38/Aβx–40/Aβx–42, and sAPPα/sAPPβ concentrations in pg/mL were determined, respectively, using amyloid-beta 40 and 42 Human ELISA Kits (Invitrogen), the V-PLEX Plus Aβ Peptide Panel 1 (4G8) Kit (Meso Scale Diagnostics, MSD R©, Rockville, MD, USA), and the sAPPα/sAPPβ Multiplex Kit (Meso Scale Diagnostics, MSD R©, Rockville, MD, USA) according to the manufacturer’s instructions.
Background: In an ELISA, binding on a coated surface is turned into a signal by an enzyme label.

In data set [3] the test system is Aβ1–42 peptide secretion. Kind of data set: Aβ1–42 secretion in cell medium by ELISA. The conditions noted are these: Homo sapiens; SY5Y-APP^WT cells, 24 h treatment; mean ± SD of at least three experiments in triplicate. The method, then:
as §1, §2, §3, §4

For data set [4], the system named is αCTF (APP carboxy-terminal fragment). The experiment in a line: αCTF level by Western blotting in SY5Y-APP^WT cells. To be noted: Homo sapiens; concentration increasing αCTF 20-fold vs untreated control; SY5Y-APP^WT cells; read-out: αCTF (C20). The method, then: as §1, §2
(§5) Cell protein lysates were prepared for Western blot analysis by diluting the sample with 1 volume of NuPAGE® lithium dodecyl sulfate (LDS) 2X sample buffer supplemented with 20% NuPAGE® sample reducing agents (Invitrogen). Samples were heated for 10 min at 100 °C. Ten µg of total proteins per well were loaded onto precast 4–12% Criterion XT Bis-Tris polyacrylamide gels (Bio-Rad) and electrophoresis was achieved after applying a tension of 150 V for 90 min using a Criterion electrophoresis cell with the NuPAGE® MOPS SDS running buffer (1X). Proteins were transferred to a nitrocellulose membrane of […] pore size (G&E Healthcare, Madison, WI, USA) using the Criterion blotting system and applying a tension of 100 V for 45 min. To resolve proteins of low molecular weights such as carboxy-terminal fragments of APP, 12% Criterion XT Bis-Tris polyacrylamide gels (Bio-Rad, Hercules, CA, USA) were used, and electrophoresis was performed for 70 min at 150 V in a NuPAGE® MES SDS running buffer (1X). Proteins were transferred to a nitrocellulose membrane of 0.2 µm pore size (G&E Healthcare, Madison, WI, USA) at 100 V for 40 min. Molecular weight calibration was achieved using molecular weight markers (Novex and Magic Marks, Life Technologies, Carlsbad, CA, USA). Protein transfer and quality were determined by a reversible Ponceau Red coloration (0.2% xylidine Ponceau Red and 3% trichloroacetic acid). […]

The test system of data set [5] is AICD (APP intracellular domain). Kind of data set: AICD level by Western blotting in SY5Y-APP^WT cells. To be noted: Homo sapiens, concentration increasing AICD 20-fold vs untreated control, read-out: AICD (C20). The method, then:
as §1, §2, §5
Background: Immunoblotting shows a protein as a band on a membrane.

In general, CC50 refers to the concentration at which the toxic effect on the cells reaches its halfway point. Read a high CC50 as better tolerance by the cells. Usually IC50 stands for the concentration that gives 50% inhibition. For the molecule `CN(C)CCCc1ccc(-c2nn(-c3ccc(CO)cc3)cc2CN(C)C)cc1` [Compound 16, [4-[4-(Dimethylaminomethyl)-3-[4-[3-(dimethylamino)propyl]phenyl] Pyrazol-1-yl]phenyl]methanol], the CC50 at 72 h in data set [1] was 23 µM. The IC50 in data set [2] was determined as 6.2 ± 0.6 µM; in data set [3] it was 6.5 ± 1.1 µM. Further, the EC (20-fold increase) in data set [4] stood at 3.6 µM; in data set [5], 4.6 µM.
On the same counts, the results for `CN(C)CCCc1ccc(-c2nn(-c3ccc(CO)cc3)cc2CCCN(C)C)cc1` [Compound 17, [4-[4-[3-(Dimethylamino)propyl]-3-[4-[3-(dimethylamino)propyl]phenyl] Pyrazol-1-yl]phenyl]methanol] are 34 µM, 4.8 ± 1.2 µM, 5.4 ± 2.4 µM, 2 µM and 3.6 µM.
As to `CN(C)CCCc1ccc(-c2nn(-c3ccc(CN(C)C)cc3)cc2CCCN(C)C)cc1` [Compound 25, 3-[4-[1-[4-(Dimethylaminomethyl)phenyl]-4-[3-(dimethylamino)propyl] Pyrazol-3-yl]phenyl]-N,N-dimethyl-propan-1-amine], in data set [1], the CC50 at 72 h is > 100 µM. Also, the IC50 in data set [2] was found to be 2.9 ± 0.1 µM; in data set [3], 3.2 ± 1 µM. In addition, the EC (20-fold increase) in data set [4] worked out at 1 µM; in data set [5], 1.2 µM.
With `CN(C)CCCc1ccc(-c2nn(-c3cccc(CN(C)C)c3)cc2CN(C)C)cc1` [Compound 26, 3-[4-[4-(Dimethylaminomethyl)-1-[3-(dimethylaminomethyl)phenyl] Pyrazol-3-yl]phenyl]-N,N-dimethyl-propan-1-amine], the CC50 at 72 h in data set [1] was > 100 µM. The IC50 in data set [2] was 1.6 ± 0.1 µM; in data set [3] it was 2.4 ± 0.7 µM. Also, the EC (20-fold increase) in data set [4] was 1.3 µM; in data set [5], 1.8 µM.
As for `CN(C)CCCc1ccc(-c2nn(-c3cccc(CN(C)C)c3)cc2CCCN(C)C)cc1` [Compound 27, 3-[4-[1-[3-(Dimethylaminomethyl)phenyl]-4-[3-(dimethylamino)propyl] Pyrazol-3-yl]phenyl]-N,N-dimethyl-propan-1-amine], the CC50 at 72 h in data set [1] was > 100 µM. Also, the IC50 in data set [2] worked out at 2.6 ± 0.1 µM; in data set [3] it was 3.8 ± 0.4 µM. Further, the EC (20-fold increase) was determined as 1.3 µM in data set [4] and 1.6 µM in data set [5].
Consider `CN(C)CCCc1ccc(-c2nn(-c3ccc(CN4CCN(C)CC4)cc3)cc2CN(C)C)cc1` [Compound 28, 3-[4-[4-(Dimethylaminomethyl)-1-[4-[(4-methylpiperazin-1-yl)methyl] Phenyl]pyrazol-3-yl]phenyl]-N,N-dimethyl-propan-1-amine], for which, in data set [1], the CC50 at 72 h is > 100 µM. Further, the values for the IC50 in data set [2] and in data set [3] were 1.9 ± 0.1 µM and 2.4 ± 0.7 µM, respectively. Moreover, the EC (20-fold increase) is 1.2 µM in data set [4] and 1.7 µM in data set [5].
On the same counts, the results for `CN(C)CCCc1ccc(-c2nn(-c3ccc(CN4CCN(C)CC4)cc3)cc2CCCN(C)C)cc1` [Compound 29, 3-[4-[4-[3-(Dimethylamino)propyl]-1-[4-[(4-methylpiperazin-1-yl) Methyl]phenyl]pyrazol-3-yl]phenyl]-N,N-dimethyl-propan-1-amine] are > 100 µM, 3.4 ± 0.1 µM, 5 ± 0.1 µM, 1 µM and 2 µM.
Turning to `CN(C)CCCc1ccc(-c2nn(-c3cccc(CN4CCN(C)CC4)c3)cc2CN(C)C)cc1` [Compound 30, 3-[4-[4-(Dimethylaminomethyl)-1-[3-[(4-methylpiperazin-1-yl)methyl] Phenyl]pyrazol-3-yl]phenyl]-N,N-dimethyl-propan-1-amine], the CC50 at 72 h in data set [1] was > 100 µM. Besides, the IC50 in data set [2] was 2.2 ± 0.3 µM; in data set [3] it was 3.8 ± 0.1 µM. Also, the EC (20-fold increase) in data set [4] was 1.2 µM; in data set [5] it was 1.6 µM.
`CN(C)CCCc1ccc(-c2nn(-c3cccc(CN4CCN(C)CC4)c3)cc2CCCN(C)C)cc1` [Compound 31, 3-[4-[4-[3-(Dimethylamino)propyl]-1-[3-[(4-methylpiperazin-1-yl)methyl] Phenyl]pyrazol-3-yl]phenyl]-N,N-dimethyl-propan-1-amine]: the CC50 at 72 h in data set [1] was > 100 µM. Also, the IC50 in data set [2] stood at 4 ± 0.6 µM; in data set [3] it was 5.8 ± 0.6 µM. Further, the EC (20-fold increase) worked out at 1 µM in data set [4] and 1.5 µM in data set [5].
In data set [1], `Cc1cn(-c2cccc(CO)c2)nc1-c1ccc(CN(C)C)cc1` [Compound 48, [3-[3-[4-(Dimethylaminomethyl)phenyl]-4-methyl-pyrazol-1-yl]phenyl] Methanol] gave a CC50 at 72 h of 24 µM. The IC50 in data set [2] and in data set [3] was > 10 µM throughout.
In the case of `Cc1cn(-c2cccc(CO)c2)nc1-c1cccc(CN(C)CCCN(C)C)c1` [Compound 58, [3-[3-[3-[[3-(Dimethylamino)propyl-methyl-amino]methyl]phenyl]-4-methyl-pyrazol-1-yl]phenyl]methanol], in data set [1], the CC50 at 72 h came to 20 µM. The IC50 in data set [2] turned out to be 3.3 ± 1.3 µM; in data set [3] it was 3.5 ± 0.7 µM. Moreover, the values for the EC (20-fold increase) in data set [4] and in data set [5] were > 10 µM and 7.9 µM, respectively.
As to `Cc1cn(-c2cccc(CN(C)C)c2)nc1-c1ccc(CN(C)C)cc1` [Compound 61, {[4-(1-{3-[(Dimethylamino)methyl]phenyl}-4-methyl-1H-pyrazol-3-yl)phenyl]methyl}dimethylamine], in data set [1], the midpoint of cytotoxicity, the CC50 at 72 h, lay at 27 µM. The IC50 in data set [2] was 3.9 ± 0.3 µM; in data set [3], 4.1 ± 2.1 µM. Moreover, the EC (20-fold increase) in data set [4] and in data set [5] was 2.7 µM throughout.
`Cc1cn(-c2cccc(CN3CCN(C)CC3)c2)nc1-c1ccc(CN(C)C)cc1` [Compound 62, Dimethyl({[4-(4-methyl-1-{3-[(4-methylpiperazin-1-yl)methyl]phenyl}-1H-pyrazol-3-yl)phenyl]methyl})amine] had a half-maximal cytotoxic concentration (CC50) at 72 h in data set [1] of 11 µM. The IC50 was found to be 2.4 ± 0.2 µM in data set [2] and 3.2 ± 0.8 µM in data set [3]. Further, the EC (20-fold increase) is 2 µM in data set [4] and 3.5 µM in data set [5].

The values above are taken from article PMC9658513, “Discovery of Compounds That Selectively Repress the Amyloidogenic Processing of the Amyloid Precursor Protein: Design, Synthesis and Pharmacological Evaluation of Diphenylpyrazoles” (International Journal of Molecular Sciences, 2022).
